The values that follow come from US10508118B2, “Pyrimidopyrrole compounds, method for preparing the same, pharmaceutical compositions comprising the same and uses thereof” (Xiamen University, priority 2015, dated 2019).

What all share (type): cell-based
For assay [1], the system named is wild type BaF3. The assay is described as follows: Growth inhibition of wild type BaF3 cells (broad-spectrum toxicity). As to conditions: Mus musculus, BaF3, 48 h, MTS. The procedure, abridged: (§1)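 MTS absorbance at 490 nm, measured 1–4 h after reagent addition, reports growth after 48 h compound exposure (37 °C, 5% CO2) of 2×10^4 cells/well. Eight 1/3-step concentrations from a 10 μM top, 0.1% DMSO; triplicate inhibition relative to vehicle and blank gives IC50.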

Assay [2] relates to lung cancer cells H3122. Nature of the assay: Growth inhibition of tumor cells H3122. The following applies: Homo sapiens, NCI-H3122.
Assay [3] has as its system lung cancer cells A549. Nature of the assay: Growth inhibition of tumor cells A549. As to conditions: Homo sapiens.
For assay [4], the target named is T1, EML4-ALK-BaF3 (Homo sapiens, UniProt Q9UM73).
T1 construct: expressed in transfected cells; host or cells: Ba/F3 cells; the other entry of the earlier key: EML4 (Q9HC35, Echinoderm microtubule-associated protein-like 4)
The assay is described as follows: Growth inhibition of EML4-ALK transformed BaF3 cells (MTS). The following applies: for IC50: EML4-ALK-BaF3 cells, 48 hours, MTS, Table 11. The procedure, abridged:
(§2)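 Ba/F3 cells (2×10^4/well) in DMEM or RPMI1640 with 10% FBS exposed to 8 compound concentrations (top 10 μM, 1/3 serial dilution, 0.1% DMSO) for 48 h at 37 °C, 5% CO2. Viability by MTS/PES, 1-4 h, OD 490 nm; triplicates. IC50 fitted from inhibition rate.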

Assay [5] addresses T2, EML4-ALK (L1196M)-BaF3 (Homo sapiens, UniProt Q9UM73, L1196M).
T2 construct: expressed in transfected cells; host or cells: Ba/F3 cells; the other entry of the earlier key: EML4 (Q9HC35, Echinoderm microtubule-associated protein-like 4)
The assay is described as follows: Growth inhibition of EML4-ALK (L1196M) transformed BaF3 cells (MTS). The following applies: 48 hours, Table 11, read-out: EML4-ALK (L1196M) (IC50 nM). In outline:
as §2

The target of assay [6] is T3, NPM-ALK-BaF3 (Homo sapiens, UniProt Q9UM73).
T3 construct: expressed in transfected cells; host or cells: Ba/F3 cells; the other entry of the earlier key: NPM1 (P06748, Nucleophosmin)
Nature of the assay: Growth inhibition of NPM-ALK transformed BaF3 cells (MTS). As to conditions: 48 hours, Table 11. In outline:
as §1

In assay [7] the test system is melanoma A375. The assay is described as follows: Growth inhibition of tumor cells A375. As to conditions: Homo sapiens, A-375.
In assay [8] the test system is liver cancer HepG2. The assay is described as follows: Growth inhibition of tumor cells HepG2. The following applies: Homo sapiens.
Assay [9] relates to breast cancer MCF7. The assay is described as follows: Growth inhibition of tumor cells MCF7. The following applies: Homo sapiens.
The test system of assay [10] is DFC1076 (crizotinib resistant tumor cell lines). The assay is described as follows: Growth inhibition of tumor cells DFC1076. The following applies: ALK kinase-positive lung cancer cell line.

Where only a bound is given, the exact number is not on record here.

As a reminder, the IC50 is the midpoint of a concentration-inhibition curve. Consider `C[C@@H](Oc1cc(-c2cnn(C3CCNCC3)c2)cnc1N)c1c(Cl)ccc(F)c1Cl` [Crizotinib, crizotinib, reference compound], for which the IC50 in [1] (Table 11) turned out to be 1080 nM; in assay [1] (Table 12) it was 1080 nM; in assay [2], 185 nM; in assay [3] it was 2400 nM.

For `COc1cc(N2CCC(N3CCN(C)CC3)CC2)ccc1Nc1nc(Nc2ccccc2S(=O)(=O)C(C)C)c2[nH]ccc2n1` [ID-3], the IC50 in assay [4] stood at 14.9 nM; in [5], 168 nM; in [6] it was 303 nM; in assay [1] (Table 11), 1010 nM; in assay [2], 61.1 nM; in assay [3] it was 2720 nM. Also, the figures for the IC50 in assay [7], in [8] and in [9] were 3760 nM, 3440 nM and 2840 nM, respectively. Also, the targeting selectivity result in assay [4] (ratio of IC50 between wild-type BaF3 and ALK transformed BaF3 cells) was “good targeting selectivity”. In [10], the growth inhibition entry is recorded as “good growth inhibition”.

Regarding `CC(C)S(=O)(=O)c1ccccc1CNc1nc(Nc2ccc(N3CCN(C)CC3)cc2)nc2cc[nH]c12` [IO-5], the IC50 in assay [4] turned out to be 4870 nM; in assay [5] it was 5200 nM; in assay [6], 5030 nM; in [1] (Table 11), 1910 nM.

For the compound `CNc1nc(Nc2ccc(N3CCC(N4CCN(C)CC4)CC3)cc2OC)nc2cc[nH]c12` [IQ-2], the IC50 in assay [4], in assay [5], in assay [6] and in assay [1] (Table 11) was more than 10000 nM throughout.

For the compound `CNc1nc(Nc2ccc(N3CCC(O)CC3)cc2)nc2cc[nH]c12` [IQ-3], the IC50 in assay [4], in assay [5], in assay [6] and in assay [1] (Table 11) was more than 10000 nM throughout.

For `CNc1nc(Nc2ccc(S(N)(=O)=O)cc2)nc2cc[nH]c12` [IQ-4], the IC50 in assay [4], in [5], in assay [6] and in assay [1] (Table 11) was more than 10000 nM throughout.

Consider `CNc1nc(Nc2ccc(C(=O)N3CCOCC3)cc2OC)nc2cc[nH]c12` [IQ-5], for which the 50% inhibitory concentration (IC50) in assay [4], in [5], in [6] and in [1] (Table 11) was more than 10000 nM each time.

With `CNc1nc(Nc2ccc(C(=O)N3CCN(C)CC3)cc2OC)nc2cc[nH]c12` [IQ-6], the IC50 in assay [4], in assay [5], in assay [6] and in [1] (Table 11) was more than 10000 nM in each case.

As to `CCNc1nc(Nc2ccc(N3CCN(C)CC3)cc2OC)nc2cc[nH]c12` [IR-1], the IC50 in assay [4], in assay [5], in assay [6] and in [1] (Table 11) was more than 10000 nM throughout.

On to `CCNc1nc(Nc2ccc(N3CCC(N4CCN(C)CC4)CC3)cc2OC)nc2cc[nH]c12` [IR-2], for which the IC50 in assay [4], in assay [5], in assay [6] and in assay [1] (Table 11) was more than 10000 nM in each case.

Regarding `CCNc1nc(Nc2ccc(N3CCC(O)CC3)cc2)nc2cc[nH]c12` [IR-3], the IC50 in assay [4], in assay [5], in assay [6] and in assay [1] (Table 11) was more than 10000 nM each time.

On to `COc1cc(N2CCN(C)CC2)ccc1Nc1nc(NC2CC2)c2[nH]ccc2n1` [IS-1], for which the IC50 was approximately 2550 nM in assay [4], 1700 nM in assay [5], 1790 nM in assay [6] and 5330 nM in [1] (Table 11).

`COc1cc(N2CCC(N3CCN(C)CC3)CC2)ccc1Nc1nc(NC2CC2)c2[nH]ccc2n1` [IS-2]: the IC50 in [4] is more than 10000 nM; in [5] it was 5030 nM; in assay [6], more than 10000 nM; in assay [1] (Table 11), more than 10000 nM.

`OC1CCN(c2ccc(Nc3nc(NC4CC4)c4[nH]ccc4n3)cc2)CC1` [IS-3]: the IC50 in [4] is 4480 nM; in [5], 9710 nM; in assay [6], more than 10000 nM; in assay [1] (Table 11), 11800 nM.

As for `NS(=O)(=O)c1ccc(Nc2nc(NC3CC3)c3[nH]ccc3n2)cc1` [IS-4], the IC50 in assay [4], in assay [5], in assay [6] and in [1] (Table 11) was more than 10000 nM each time.

In the case of `COC(=O)c1ccccc1Sc1nc(Nc2ccc(N3CCN(C)CC3)cc2OC)nc2cc[nH]c12` [IU-1], the IC50 in assay [4], in assay [5], in assay [6] and in [1] (Table 11) was more than 10000 nM each time.

On to `COC(=O)c1ccccc1Sc1nc(Nc2ccc(N3CCC(N4CCN(C)CC4)CC3)cc2OC)nc2cc[nH]c12` [IU-2], for which the IC50 was 4580 nM in [4], 2670 nM in [5], 4900 nM in assay [6] and approximately 8340 nM in [1] (Table 11).

Regarding `COC(=O)c1ccccc1Sc1nc(Nc2ccc(N3CCC(O)CC3)cc2)nc2cc[nH]c12` [IU-3], the IC50 in assay [4] worked out at 4900 nM; in [5], 4180 nM; in [6], 8270 nM; in assay [1] (Table 11), 6520 nM.

For `COC(=O)c1ccccc1Sc1nc(Nc2ccc(S(N)(=O)=O)cc2)nc2cc[nH]c12` [IU-4], the IC50 in assay [4] is 9110 nM; in assay [5] it was 5990 nM; in assay [6], more than 10000 nM; in assay [1] (Table 11) it was more than 10000 nM.

Take `COC(=O)c1ccccc1Sc1nc(Nc2ccc(N3CCC(N4CCCC4)CC3)cc2OC)nc2cc[nH]c12` [IU-5]: the IC50 was approximately 2880 nM in [4], approximately 2510 nM in [5], approximately 2850 nM in [6] and approximately 7720 nM in assay [1] (Table 11).

In the case of `COC(=O)c1ccccc1Oc1nc(Nc2ccc(N3CCN(C)CC3)cc2OC)nc2cc[nH]c12` [IV-1], the IC50 is 6900 nM in assay [4], 7310 nM in [5], more than 10000 nM in assay [6] and more than 10000 nM in assay [1] (Table 11).

For `COC(=O)c1ccccc1Oc1nc(Nc2ccc(N3CCC(N4CCN(C)CC4)CC3)cc2OC)nc2cc[nH]c12` [IV-2], the IC50 is approximately 8980 nM in [4], 3960 nM in [5], approximately 9140 nM in assay [6] and approximately 8450 nM in assay [1] (Table 11).

With `COC(=O)c1ccccc1Oc1nc(Nc2ccc(N3CCC(O)CC3)cc2)nc2cc[nH]c12` [IV-3], the IC50 in assay [4] was 4550 nM; in assay [5] it was 4340 nM; in [6], 8150 nM; in [1] (Table 11), 8920 nM.

For `COC(=O)c1ccccc1Oc1nc(Nc2ccc(S(N)(=O)=O)cc2)nc2cc[nH]c12` [IV-4], the IC50 in [4], in assay [5], in [6] and in assay [1] (Table 11) was more than 10000 nM each time.
